This note sets out measurements from PMC12817916, “A small-molecule HSP90 inhibitor, NVP-HSP990, alleviates rotavirus infection” (Journal of Virology, 2025).

In the data set the test system is RV EDIM strain. The data set is described as follows: RV EDIM diarrhea model in suckling mice (treatment after diarrhea onset). Format: in vivo, BALB/c suckling mice. Here is the method:
BALB/c mice were purchased from Gempharmatech Inc. (Suzhou, China) and housed under SPF conditions (22 ± 1°C, 12 h light/dark cycle). Suckling mice were obtained by mating male and female adult BALB/c mice (12- to 16-week-old). Only the 7-day-old BALB/c suckling mice with body weights ranging from 2.5 g to 4.5 g were selected for RV diarrhea models. For induction of RV diarrhea, 1 × 10^6 PFU of SA11 strain or 10 × DD50 of EDIM strain in 20 µL PBS was orally inoculated using a pipette tip to 7-day-old BALB/c suckling mice regardless of their sexes, as sex has no significant influence on RV diarrhea occurrence. We used a scoring system to evaluate fecal consistency and color as described with some modification ([27]): no stool or brown formed stool (1 point); brown soft stool (2 points); yellow soft stool (3 points); and yellow watery stool (4 points). Mice with scores of ≥2 meant diarrhea occurrence, while mice with scores of 1 meant no diarrhea. At the end of each experiment, all infected or drug-treated suckling mice were humanely euthanized via CO2 asphyxiation.
Seven-day-old BALB/c suckling mice meeting the weight criteria within each litter were randomly assigned to experimental groups. Each litter was allocated to ensure one to three suckling mice per experimental group (variations dependent on the total number of groups). Data from suckling mice assigned to the same group across multiple litters were aggregated to achieve a total sample size of n = 3–6 per experimental group. Then, the suckling mice were orally inoculated with 1 × 10^6 PFU of the SA11 strain or 10 × DD50 of the EDIM strain, or with an equal amount of PBS as mock infection. For SA11 infection, the suckling mice were orally treated once with indicated doses of drugs or with an equal volume of DMSO as control at 2 h p.i. For EDIM infection, the suckling mice were orally treated with 0.2 mg/kg/day NVP-HSP990, 30 mg/kg/day ribavirin, or an equal amount of DMSO as control from 2 days post-infection (d p.i.) to indicated time points. Diarrhea scores and body weight were monitored from day 0 to day 7 post-infection in the SA11 infection model, and from day 0 to day 9 post-diarrhea occurrence (2–11 d p.i.) in the EDIM infection model. Blinding was applied throughout data collection and analysis.
The RV-infected suckling mice were sacrificed by CO2 asphyxiation at the indicated times, and small intestines (including duodenum, jejunum, and ileum) or colon was homogenized in 0.3 mL DMEM, centrifuged at 12,000 × g for 5 min at 4°C, and the supernatant was collected. Virus contents in the supernatant were titrated with PFA as described above. Viral antigens in the supernatant were detected with enzyme-linked immunosorbent assay (ELISA) kits for RV (CUSABIO, China) following the manufacturer’s instructions. For qPCR analysis of RV protein expression, the intestines were longitudinally split and washed in 1 mL DMEM by shaking for 30 s. Then, the tissues were cut into 0.5 cm segments, incubated in Hank’s buffer containing 2.5 mM EDTA-Na2 and 1 mM dithiothreitol (Sangon Biotech, China) at 37°C with rotation at 200 rpm for 30 min, filtered with a 70 µm strainer. Then the epithelial cells were pelleted by centrifugation at 500 × g for 5 min, purified with 20% Percoll (Cytiva, Sweden), and lysed in Trizol for RNA extraction and further qPCR analysis.
The jejunum and ileum of suckling mice were fixed in 4% paraformaldehyde for 24 h, washed with PBS twice, and then subjected to paraffin embedding and slicing at 5 µm thickness. The sections were stained with hematoxylin and eosin (Beyotime, China) and observed with an Olympus BX51 microscope, and the data were processed by CaseViewer 2.4 software. For immunohistochemistry analysis, the fixed tissues were dehydrated in 30% sucrose, embedded in Optimal Cutting Temperature compound, frozen with liquid nitrogen, and cryosliced at 10 µm thickness. […]

Take `COc1cccc(-c2cc(F)ccc2[C@H]2Cc3nc(N)nc(C)c3C(=O)N2)n1` [NVP-HSP990]: the “therapeutic effect on diarrhea compared to ribavirin” value (0.2 mg/kg/day NVP-HSP990 vs 30 mg/kg/day ribavirin, oral, 5 days) is given as “superior therapeutic effect”. For the same compound, the “weight gain in EDIM-infected suckling mice” value (0.2 mg/kg/day oral for 5 days, observed for another 5 days) was “did not adversely affect”. Where the note is “0.2 mg/kg/day oral for 5 days, observed for another 5 days, compared to untreated group”, the diarrhea scores result was “significantly reduced”. Besides, the “foamy degeneration and viral infection in small intestinal epithelial cells” value (0.2 mg/kg/day oral from 2 d p.i., 3 consecutive days, compared to untreated controls) was “marked reduction”. The “RV viral antigens in colonic contents” value (0.2 mg/kg/day oral, 3 days, ELISA, vs untreated or ribavirin-treated (30 mg/kg/day) groups) is reported as “significantly lower”. Also, the “viral antigen (VP6 and NSP4) expression in intestinal epithelial cells” value (0.2 mg/kg/day oral, 3 days, qPCR, compared to untreated group) is on record as “significantly reduced”.
